The values that follow come from publication PMC9958891 (2023).

The subject of assay [1] is 5'-FAM-c-myc-TAMRA-3' (c-myc G4 DNA, FRET) (DNA, G4) TGAGGGTGGGTAGGGTGGGTAA
Kind of assay: FRET melting. The conditions noted are these: K+ 100 mM, Na+ (10 mM Na3AsO4); 10 mM Tris-HCl pH 7.4; 0.2 μM DNA; compound concentration not stated; value per abstract, b23 order differs.

The test system of assay [2] is c-myc Pu22 (c-myc G4 DNA) (DNA, G4) TGAGGGTGGGTAGGGTGGGTAA
Description: UV-vis absorption titration. The conditions noted are these: K+ 100 mM; 10 mM Tris-HCl, pH 7.2, room temperature; 20 μM complex.

Turning to `COc1ccc(CCc2cc(OC)c(OC)c(OC)c2)cc1OCCCCn1c(-c2ccc(C(F)(F)F)cc2)nc2c3cccnc3c3ncccc3c21.[Ru+2].c1cnc2c(c1)ccc1cccnc12.c1cnc2c(c1)ccc1cccnc12`, in assay [1], the ΔTm was ~ 16.5 °C. Besides, in assay [2], the binding constant was ~ 2.05 × 10^7 M^−1.
As for `COc1ccc(CCc2cc(OC)c(OC)c(OC)c2)cc1OCCCCn1c(-c2ccccc2C(F)(F)F)nc2c3cccnc3c3ncccc3c21.[Ru+2].c1cnc2c(c1)ccc1cccnc12.c1cnc2c(c1)ccc1cccnc12`, the ΔTm in assay [1] is ~ 15.5 °C.
